The text below walks through data of patent US7642400B2, “Protein kinase C iota” (Mayo Foundation for Medical Education and Research, priority 2004, dated 2010).

The target in test [1] is T1, interaction of PKCι polypeptides with PAR6 polypeptides (Homo sapiens, UniProt P41743).
T1 construct: amino acids 1-113 or a full-length PKCι polypeptide; 6xHis; made in house
T1 sequence (P41743 10-122): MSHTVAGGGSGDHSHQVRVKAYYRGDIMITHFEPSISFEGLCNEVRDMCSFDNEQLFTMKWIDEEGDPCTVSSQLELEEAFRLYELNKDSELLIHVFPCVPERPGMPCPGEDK
The test can be described thus: Primary screen: FRET assay of PKCι113-YFP-N1 (PYN) and PAR6125-CFP-C1. The following applies: FIG. 18; less binding as concentration increased. As for the experimental part:
A primary screen was performed as follows to identify test compound having the potential to inhibit the interaction of PKCι polypeptides with PAR6 polypeptides. Bacterially expressed PKCι113-YFP-N1 (PYN) was isolated from the soluble fraction of bacterial lysates by affinity purification according to the manufacturer's protocol (B-PER 6×His Purification Kit; Pierce). The purified polypeptide was dialyzed against Tris buffer (50 mM Tris, pH 8.0; 135 mM NaCl; 10% glycerol; 0.002% EDTA) containing 2 M urea. PAR6125-CFP-C1 recombinant polypeptide was isolated from the inclusion body pellets of bacterial lysates using the B-PER reagent (Pierce) according to the manufacturer's protocol. […] Yields were measured by fluorescence in a SpectraMax Gemini microplate reader (Molecular Devices).
To perform the assay, PYN was diluted to 4000 relative fluorescent units/50 μl in Tris buffer plus 1 M urea, and PAR6125-CFP-C1 was diluted to 400 relative fluorescent units/50 μl Tris buffer plus 1 M urea. […] Fluorescence was measured in a SpectraMax Gemini plate reader. Cyan fluorescence was measured at excitation 395 nm, emission 475 nm, and cutoff of 455 nm. Yellow fluorescence was measured at excitation 395 nm, emission 529, and cutoff of 515=n. […]

The next test relates to A549 cells. The test can be described thus: Soft agar growth assay (anchorage-independent growth) of A549 cells. The format is cell-based, human. The following applies: A549 cells, FIG. 20. As for the experimental part:
(§1) Anchorage-independent growth was assayed by the ability of cells to form colonies in soft agar. The bottom agar consisted of growth medium containing 10% FBS and 0.75% agarose in 60-mm tissue culture dishes. Nine hundred cells were resuspended in growth medium containing 10% FBS and 0.75% agarose, and plated on top of the bottom agar. The cells were incubated at 37° C. in 5% CO2. Cell colonies were visualized and quantified under a dissecting microscope (Olympus) after 4-6 weeks in culture.
as §1, with “Soft Agar Growth Assays: Anchorage-independent growth” for “Anchorage-independent growth”, “and 0.75% agarose and plated” for “and 0.75% agarose, and plated”, “bottom agar. ATG was added at the indicated concentration to both bottom and top agar solutions. The cells” for “bottom agar. The cells”

For test [2], the system named is A549 human lung carcinoma cells. The test can be described thus: Tumorigenicity in nude mice: A549 subcutaneous tumors. The following applies: 200 mg/kg body weight intraperitoneal daily, versus saline; FIG. 21. The class given is in vivo, mouse. Here is the method:
Tumorigenicity in Nude Mice: The growth of A549 human lung carcinoma cells as established subcutaneous tumors was studied in athymic nude mice (Harlan-Sprague-Dawley, Indianapolis, Ind.) in a defined pathogen-free environment. Briefly, A549 cells were grown in F-12K Nutrient Mixture containing 10% FBS. A549 cells were harvested and resuspended in serum-containing medium. 5×10^6 cells in 100 μl of growth medium were injected subcutaneously into the flank of 4-6 week old female nude mice. Once palpable tumors were established (15 days after inoculation) animals were randomly segregated into two groups. One group received intraperitoneal injections of ATG (200 mg/kg body weight) daily; the second group received an equivalent volume of diluent control solution. Tumor size was measured daily. Tumor growth was quantified by measuring the tumors in three dimensions with calipers. Tumor volume (mm^3) was calculated using the formula: 0.5236 (L×W×H), where L represents the length of the tumor, W represents the width of the tumor, and H represents the height of the tumor. Animals were individually monitored throughout the experiment.

As to `OC[C@H]1O[C@H]([S-])[C@H](O)[C@@H](O)[C@@H]1O.[Au+]` [Aurothioglucose], the “dose-response in the FRET assay: relative binding of PKCι and PAR6 polypeptides” value in test [1] is reported as “dose-dependent effect”. The soft agar growth entry in the test with A549 cells (10 μM) and in the test on A549 cells (100 μM) was “decreased soft agar growth” throughout. Besides, in test [2], the “tumor growth (tumor volume)” value is given as “less tumor growth”.
